Laboratory results as given in patent US7550456B2, “Substituted aryl cycloalkanoyl derivatives and methods of their use” (Wyeth, priority 2003, dated 2009).
Structures can show the parent of a compound that is named as a salt.

target: T1, human hNET (Homo sapiens, UniProt P23975); test: Norepinephrine (NE) uptake assay in MDCK-Net6 cells; format: cell-based; details: 1 μM test compound, [3H]NE uptake, dihydrochloride, 1 µM
T1 construct: expressed in transfected cells; host or cells: MDCK-Net6 (MDCK cells, stably transfected)
Experimental: Cells were plated at 300,000/T75 flask and cells were split twice weekly. […] Cells were plated at 250,000 cells/T75 flask and split twice weekly.
Norepinephrine (NE) Uptake Assay
On day 1, cells were plated at 3,000 cells/well in growth medium and maintained in a cell incubator (37° C., 5% CO2). On day 2, growth medium was replaced with 200 μl of assay buffer (25 mM HEPES; 120 mM NaCl; 5 mM KCl; 2.5 mM CaCl2; 1.2 mM MgSO4; 2 mg/ml glucose (pH 7.4, 37° C.)) containing 0.2 mg/ml ascorbic acid and 10 μM pargyline. Plates containing cells with 200 μl of assay buffer were equilibrated for 10 minutes at 37° C. prior to addition of compounds. A stock solution of desipramine was prepared in DMSO (10 mM) and delivered to triplicate wells containing cells for a final test concentration of 1 μM. Data from these wells were used to define non-specific NE uptake (minimum NE uptake). Test compounds were prepared in DMSO (10 mM) and diluted in assay buffer according to test range (1 to 10,000 nM). Twenty-five microliters of assay buffer (maximum NE uptake) or test compound were added directly to triplicate wells containing cells in 200 μl of assay buffer. The cells in assay buffer with test compounds were incubated for 20 minutes at 37° C. […] The reaction was terminated by decanting the supernatant from the plate. The plates containing cells were washed twice with 200 μl assay buffer (37° C.) to remove free radioligand. The plates were then inverted, left to dry for 2 minutes, then reinverted and air-dried for an additional 10 minutes. The cells were lysed in 25 μl of 0.25 N NaOH solution (4° C.), placed on a shake table and vigorously shaken for 5 minutes. After cell lysis, 75 μl of scintillation cocktail was added to each well and the plates were sealed with film tape. The plates were returned to the shake table and vigorously shaken for a minimum of 10 minutes to ensure adequate partitioning of organic and aqueous solutions. The plates were counted in a Wallac Microbeta counter (PerkinElmer) to collect the raw cpm data.
For each experiment, a data stream of cpm values collected from the Wallac Microbeta counter was downloaded to a Microsoft Excel statistical application program. Calculations of EC50 values were made using the transformed-both-sides logistic dose response program written by Wyeth Biometrics Department.

T1 sequence (P23975 whole entry): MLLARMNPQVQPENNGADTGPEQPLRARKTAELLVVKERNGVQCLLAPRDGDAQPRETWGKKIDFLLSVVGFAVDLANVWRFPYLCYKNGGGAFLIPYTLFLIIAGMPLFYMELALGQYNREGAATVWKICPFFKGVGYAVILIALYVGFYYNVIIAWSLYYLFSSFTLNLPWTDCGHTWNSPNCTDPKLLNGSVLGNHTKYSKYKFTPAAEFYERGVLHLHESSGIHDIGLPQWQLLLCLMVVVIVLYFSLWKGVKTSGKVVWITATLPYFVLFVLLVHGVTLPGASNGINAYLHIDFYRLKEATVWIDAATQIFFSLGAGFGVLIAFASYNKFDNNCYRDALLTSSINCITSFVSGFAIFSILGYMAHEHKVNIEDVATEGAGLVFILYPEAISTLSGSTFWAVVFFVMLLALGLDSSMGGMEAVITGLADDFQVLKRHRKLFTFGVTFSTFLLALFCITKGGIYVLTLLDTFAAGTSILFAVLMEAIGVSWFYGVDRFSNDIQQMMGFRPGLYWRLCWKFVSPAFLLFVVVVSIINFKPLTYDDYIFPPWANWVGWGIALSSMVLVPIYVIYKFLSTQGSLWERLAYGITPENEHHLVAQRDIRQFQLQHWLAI

SMILES	% Inhibition @ 1 μM (hNET) [%]
OC1(C(CN2CCNCC2)c2cccc(OC(F)(F)F)c2)CCCCC1 (stereo in doubt) [Example 244, 1-{(1R)-2-piperazin-1-yl-1-[3-(trifluoromethoxy)phenyl]ethyl}cyclohexanol dihydrochloride]	15.6

same assay, conditions: 1 μM test compound, [3H]NE uptake, read-out: % Inhibition @ 1 μM (hNET)

SMILES	inhibition at 1 µM [%]
OC1(C(CN2CCNCC2)c2ccc(OCc3ccccc3)c(Cl)c2)CCCCC1 (stereo not shown) [Example 292, 1-{1-[4-(benzyloxy)-3-chlorophenyl]-2-piperazin-1-ylethyl}cyclohexanol dihydrochloride]	89
OC1(C(CN2CCNCC2)c2ccc(-c3ccc(Cl)c(Cl)c3)cc2)CCC1 (stereo not shown) [Example 184, 1-[1-(3′,4′-dichloro-1,1′-biphenyl-4-yl)-2-piperazin-1-ylethyl]cyclobutanol dihydrochloride]	40
CN1CCN(CC(c2ccc(CCc3ccccc3)cc2)C2(O)CCCCC2)CC1 (stereo not shown) [Example 410, 1-{2-(4-methylpiperazin-1-yl)-1-[4-(2-phenylethyl)phenyl]ethyl}cyclohexanol dihydrochloride]	51
OC1(C(CN2CCNCC2)c2cccc(-c3ccccc3)c2)CCCCC1 (stereo not shown) [Example 136, 1-[1-(1,1′-biphenyl-3-yl)-2-piperazin-1-ylethyl]cyclohexanol dihydrochloride]	62
OC1(C(CN2CCN(Cc3ccc4c(c3)OCO4)CC2)c2ccc(OC(F)(F)F)cc2)CCCCC1 (stereo not shown) [Example 285, 1-{2-[4-(1,3-benzodioxol-5-ylmethyl)piperazin-1-yl]-1-[4-(trifluoromethoxy)phenyl]ethyl}cyclohexanol dihydrochloride]	20
COc1ccccc1COc1ccc(C(CN2CCN(C)CC2)C2(O)CCCCC2)cc1Cl (stereo not shown) [Example 457, 1-[1-{3-chloro-4-[(2-methoxybenzyl)oxy]phenyl}-2-(4-methylpiperazin-1-yl)ethyl]cyclohexanol dihydrochloride]	77
OC1(C(CN2CCNCC2)c2ccc(-c3cccc(OC(F)(F)F)c3)cc2)CCC1 (stereo not shown) [Example 183, 1-{2-piperazin-1-yl-1-[3′-(trifluoromethoxy)-1,1′-biphenyl-4-yl]ethyl}cyclobutanol dihydrochloride]	16
C#Cc1cccc(C(CN2CCN(C)CC2)C2(O)CCCCC2)c1 (stereo not shown) [Example 299, 1-[1-(3-ethynylphenyl)-2-(4-methylpiperazin-1-yl)ethyl]cyclohexanol dihydrochloride]	95
CN1CCN(CC(c2ccc(-c3cccc([N+](=O)[O-])c3)cc2)C2(O)CCCCC2)CC1 (stereo not shown) [Example 178, 1-[2-(4-methylpiperazin-1-yl)-1-(3′-nitro-1,1′-biphenyl-4-yl)ethyl]cyclohexanol dihydrochloride]	33
COc1cc(C(CN2CCN(C)CC2)C2(O)CCCCC2)ccc1OCc1ccc(Br)cc1F (stereo not shown) [Example 447, 1-[1-{4-[(4-bromo-2-fluorobenzyl)oxy]-3-methoxyphenyl}-2-(4-methylpiperazin-1-yl)ethyl]cyclohexanol]	97
CN1CCN(CC(c2ccc(OCc3ccccc3)c(F)c2)C2(O)CCCCC2)CC1 (stereo not shown) [Example 414, 1-{1-[4-(benzyloxy)-3-fluorophenyl]-2-(4-methylpiperazin-1-yl)ethyl}cyclohexanol dihydrochloride]	96
Oc1ccc(C(CN2CCNCC2)C2(O)CCCCC2)cc1OC(F)(F)F (stereo not shown) [Example 400, 4-[1-(1-hydroxycyclohexyl)-2-piperazin-1-ylethyl]-2-(trifluoromethoxy)phenol dihydrochloride]	38
OC1(C(CN2CCNCC2)c2ccc(OCc3ccccc3C(F)(F)F)cc2)CCCCC1 (stereo not shown) [Example 440, 1-[2-piperazin-1-yl-1-(4-{[2-(trifluoromethyl)benzyl]oxy}phenyl)ethyl]cyclohexanol dihydrochloride]	28
CN1CCN(CC(c2ccc(-c3ccccc3)cc2)C2(O)CCCCC2)CC1 (stereo not shown) [Example 158, 1-[1-(1,1′-biphenyl-4-yl)-2-(4-methylpiperazin-1-ylethyl]cyclohexanoldihydrochloride]	57
OC1(C(CN2CCNCC2)c2ccc(-c3ccsc3)cc2)CCCCC1 (stereo not shown) [Example 174, 1-[2-piperazin-1-yl-1-(4-thien-3-ylphenyl)ethyl]cyclohexanol dihydrochloride]	2
OC1(C(CN2CCNCC2)c2ccc(OCc3ccc4ccccc4c3)c(Cl)c2)CCCCC1 (stereo not shown) [Example 427, 1-{1-[3-chloro-4-(2-naphthylmethoxy)phenyl]-2-piperazin-1-ylethyl}cyclohexanol dihydrochloride]	33
COc1ccc(C(CN2CCN(C)CC2)C2(O)CCCCC2)cc1-c1ccc(C(F)(F)F)cc1 (stereo not shown) [Example 257, 1-[1-[6-methoxy-4′-(trifluoromethyl)-1,1′-biphenyl-3-yl]-2-(4-methylpiperazin-1-yl)ethyl]cyclohexanol dihydrochloride]	17
OC1([C@@H](CN2CCNCC2)c2cccc(Oc3ccccc3)c2)CCCCC1 (single isomer, unassigned) [Example 358, dihydrochloride]	73

Second part, the compound after the results:

inhibition at 1 µM [%]	SMILES
76	OC1(C(CN2CCNCC2)c2ccc(OCc3ccccc3)c(F)c2)CCCCC1 (stereo not shown) [Example 413, 1-{1-[4-(benzyloxy)-3-fluorophenyl]-2-piperazin-1-ylethyl}cyclohexanol dihydrochloride]
51	CC(C)N1CCN(CC(c2cccc(OC(F)(F)F)c2)C2(O)CCCCC2)CC1 (stereo not shown) [Example 362, 1-{2-(4-isopropylpiperazin-1-yl)-1-[3-(trifluoromethoxy)phenyl]ethyl}cyclohexanol dihydrochloride]
6	COc1cc(C(CN2CCNCC2)C2(O)CCCCC2)cc(Br)c1OCc1ccccc1 (stereo not shown) [Example 390, 1-{1-[4-(benzyloxy)-3-bromo-5-methoxyphenyl]-2-piperazin-1-ylethyl}cyclohexanol dihydrochloride]
58	OC1(C(CN2CCNCC2)c2ccc(OCCc3ccccc3)cc2)CCCCC1 (stereo not shown) [Example 459, 1-{1-[4-(2-phenylethoxy)phenyl]-2-piperazin-1-ylethyl}cyclohexanol dihydrochloride]
56	CC#Cc1ccc(C(CN2CCNCC2)C2(O)CCCCC2)cc1 (stereo not shown) [Example 164, 1-[2-piperazin-1-yl-1-(4-prop-1-ynylphenyl)ethyl]cyclohexanol dihydrochloride]
33	OC1(C(CN2CCNCC2)c2ccc(OCCc3cccc4ccccc34)cc2)CCCCC1 (stereo not shown) [Example 464, 1-(1-{4-[2-(1-naphthyl)ethoxy]phenyl}-2-piperazin-1-ylethyl)cyclohexanol dihydrochloride]
84	OC1(C(CN2CCNCC2)c2ccc(OCc3ccccc3)c(OC(F)(F)F)c2)CCCCC1 (stereo not shown) [Example 268, 1-{1-[4-(benzyloxy)-3-(trifluoromethoxy)phenyl]-2-piperazin-1-ylethyl}cyclohexanol dihydrochloride]
31	Cc1ccc(-c2ccc(C(CN3CCN(C)CC3)C3(O)CCCCC3)cc2)cc1 (stereo not shown) [Example 181, 1-[1-(4′-methyl-1,1′-biphenyl-4-yl)-2-(4-methylpiperazin-1-yl)ethyl]cyclohexanol dihydrochloride]
34	OC1(C(CN2CCNCC2)c2ccc(-c3ccccc3F)cc2)CCCCC1 (stereo not shown) [Example 289, 1-[1-(2′-fluoro-1,1′-biphenyl-4-yl)-2-piperazin-1-ylethyl]cyclohexanol dihydrochloride]

same assay, conditions: MDCK-Net6, read-out: % Inhibition @ 1 μM (hNET), 1 μM test compound, [3H]NE uptake

SMILES	inhibition at 1 µM [%]
CN1CCN(CC(c2cccc(OC(F)(F)F)c2)C2(O)CCCCC2)CC1 (stereo not shown) [Example 24, 1-{2-(4-methylpiperazin-1-yl)-1-[3-(trifluoromethoxy)phenyl]ethyl}cyclohexanol dihydrochloride]	85
CN1CCN(C[C@@H](c2cccc(OC(F)(F)F)c2)C2(O)CCCCC2)CC1 [Example 246, 1-{(1R)-2-(4-methylpiperazin-1-yl)-1-[3-(trifluoromethoxy)phenyl]ethyl}cyclohexanol dihydrochloride]	7.4
OC1(C(CN2CCNCC2)c2cccc(OC(F)(F)F)c2)CCCCC1 (stereo not shown) [Example 23, 1-{2-piperazin-1-yl-1-[3-(trifluoromethoxy)phenyl]ethyl}cyclohexanol dihydrochloride]	85

same assay, conditions: [3H]NE uptake, test range 1 to 10,000 nM

EC50 [nM]	SMILES
1000	OC1(C(CN2CCNCC2)c2cccc(-c3ccccc3)c2)CCCCC1 (stereo not shown) [Example 136, 1-[1-(1,1′-biphenyl-3-yl)-2-piperazin-1-ylethyl]cyclohexanol dihydrochloride]
483	CN1CCN(C[C@H](c2ccc(OCc3ccccc3)cc2)C2(O)CCCCC2)CC1 [Example 411, 1-[(2S)-1-[4-(benzyloxy)phenyl]-2-(4-methylpiperazin-1-yl)ethyl]cyclohexanol dihydrochloride]

SMILES	EC50 [nM]
OC1(C(CN2CCNCC2)c2cccc(OC(F)(F)F)c2)CCCCC1 (stereo not shown) [Example 23, 1-{2-piperazin-1-yl-1-[3-(trifluoromethoxy)phenyl]ethyl}cyclohexanol dihydrochloride]	350
